For orientation: IC50 means the concentration at which inhibition is half-maximal. Low readings indicate greater potency in that assay, high ones weaker potency in that assay.

Results on 28 molecules are retold here after US12138263B2, “Pyrazolo[3,4-b]pyrazine SHP2 phosphatase inhibitors and methods of use thereof” (Relay Therapeutics, Inc., priority 2018, dated 2024).

The test addresses SHP2 (Homo sapiens (Human), UniProt Q06124). Briefly: SHP2 allosteric inhibition assay (DiFMUP prompt fluorescence). In kind it is biochemical. The conditions noted are these: 0.25 nM SHP2 with 0.5 μM peptide IRS1_pY1172(dPEG8)pY1222, substrate DiFMUP 100 μM.

The structures appear in SMILES notation. Structures can show the parent of a compound that is named as a salt.

Sequence of SHP2 (Q06124 whole entry): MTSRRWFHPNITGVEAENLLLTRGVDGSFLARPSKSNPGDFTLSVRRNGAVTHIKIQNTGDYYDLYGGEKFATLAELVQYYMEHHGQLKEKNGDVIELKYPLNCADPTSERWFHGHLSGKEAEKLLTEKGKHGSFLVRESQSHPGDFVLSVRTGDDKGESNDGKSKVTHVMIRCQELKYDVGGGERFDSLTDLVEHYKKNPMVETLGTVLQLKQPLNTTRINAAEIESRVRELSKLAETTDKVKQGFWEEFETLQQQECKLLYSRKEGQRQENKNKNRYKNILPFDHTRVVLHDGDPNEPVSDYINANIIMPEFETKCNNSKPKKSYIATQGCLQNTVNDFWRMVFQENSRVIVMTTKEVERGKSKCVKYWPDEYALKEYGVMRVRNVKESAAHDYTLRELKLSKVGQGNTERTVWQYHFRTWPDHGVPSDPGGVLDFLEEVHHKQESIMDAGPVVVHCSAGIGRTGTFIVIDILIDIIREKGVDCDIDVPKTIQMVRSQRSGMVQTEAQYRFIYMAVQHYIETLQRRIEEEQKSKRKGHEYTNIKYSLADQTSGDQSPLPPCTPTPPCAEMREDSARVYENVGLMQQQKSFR

As for `C[C@@H]1OCC2(CCN(c3cnc4c(N5CCCc6cc(OS(=O)(=O)F)ccc65)n[nH]c4n3)CC2)[C@@H]1N` [Compound 7A, 1-(6-((3S,4S)-4-amino-3-methyl-2-oxa-8-azaspiro[4.5]decan-8-yl)-1H-pyrazolo[3,4-b]pyrazin-3-yl)-1,2,3,4-tetrahydroquinolin-6-yl Sulfurofluoridate], the IC50 (Table 1) is less than 1 µM.

`CN(CCN)C(=O)c1cnc2c(-c3cccc(Cl)c3F)n[nH]c2n1` [Compound 7B] registered an IC50 (Table 2) not below 10 µM.

Molecule `CC1(CN)CCN(c2nc3[nH]nc(N4CCCc5ncccc54)c3nc2C#N)CC1` [Compound 7C, 6-[4-(aminomethyl)-4-methylpiperidin-1-yl]-3-(1,2,3,4-tetrahydro-1,5-naphthyridin-1-yl)-1H-pyrazolo[3,4-b]pyrazine-5-carbonitrile] registered an IC50 (Table 3) of less than 1 µM.

For `O=S(=O)(F)Oc1cnc2c(N3CCCc4ncccc43)n[nH]c2n1` [Compound 8A], the IC50 (Table 1) was not below 10 µM.

As to `OC1(c2cnc3c(-c4cccc(Cl)c4F)n[nH]c3n2)CCNCC1` [Compound 8B], the IC50 (Table 2) is less than 1 µM.

For the molecule `CC1(CN)CCN(c2nc3[nH]nc(N4CCCc5ncccc54)c3nc2C(N)=O)CC1` [Compound 8C, 6-[4-(aminomethyl)-4-methylpiperidin-1-yl]-3-(1,2,3,4-tetrahydro-1,5-naphthyridin-1-yl)-1H-pyrazolo[3,4-b]pyrazine-5-carboxamide], under “Table 3”, the IC50 is less than 1 µM.

Take `NCc1ccn(Cc2cnc3c(-c4cccc(Cl)c4F)n[nH]c3n2)n1` [Compound 9B, (1-((3-(3-chloro-2-fluorophenyl)-1H-pyrazolo[3,4-b]pyrazin-6-yl)methyl)-1H-pyrazol-3-yl)methanamine]: the IC50 (Table 2) is not below 10 µM.

`COC(=O)c1nc2c(N3CCCc4ncccc43)n[nH]c2nc1N1CCC(C)(CN)CC1` [Compound 9C, methyl 6-[4-(aminomethyl)-4-methylpiperidin-1-yl]-3-(1,2,3,4-tetrahydro-1,5-naphthyridin-1-yl)-1H-pyrazolo[3,4-b]pyrazine-5-carboxylate] had an IC50 (Table 3) of less than 1 µM.

The molecule `NCc1ccccc1-c1cnc2c(N3CCCc4ncccc43)n[nH]c2n1` [Compound 10B, (2-(3-(3,4-dihydro-1,5-naphthyridin-1(2H)-yl)-1H-pyrazolo[3,4-b]pyrazin-6-yl)phenyl)methanamine] displayed a 50% inhibitory concentration (IC50) (Table 2) not below 10 µM.

Consider `COc1nc2c(N3CCCc4ncccc43)n[nH]c2nc1N1CCC2(CC1)CO[C@@H](C)[C@H]2N` [Compound 10C, (3S,4S)-8-[5-methoxy-3-(1,2,3,4-tetrahydro-1,5-naphthyridin-1-yl)-1H-pyrazolo[3,4-b]pyrazin-6-yl]-3-methyl-2-oxa-8-azaspiro[4.5]decan-4-amine dihydrochloride], for which, for the setting “Table 3”, the IC50 is less than 1 µM.

For the molecule `CC(C)(CN)c1cnc2c(-c3cccc(Cl)c3F)n[nH]c2n1` [Compound 11B, 2-[3-(3-chloro-2-fluorophenyl)-1H-pyrazolo[3,4-b]pyrazin-6-yl]-2-methylpropan-1-amine], the IC50 (Table 2) was not below 10 µM.

`CC1(CN)CCN(c2nc3[nH]nc(N4CCCc5ncccc54)c3nc2CO)CC1` [Compound 11C, (6-(4-(aminomethyl)-4-methylpiperidin-1-yl)-3-(3,4-dihydro-1,5-naphthyridin-1(2H)-yl)-1H-pyrazolo[3,4-b]pyrazin-5-yl)methanol] displayed an IC50 (Table 3) of less than 1 µM.

Under “Table 2”, `CC(C)(CN)c1cnc2c(N3CCCc4ncccc43)n[nH]c2n1` [Compound 12B, 2-(3-(3,4-dihydro-1,5-naphthyridin-1(2H)-yl)-1H-pyrazolo[3,4-b]pyrazin-6-yl)-2-methylpropan-1-amine] yielded an IC50 not below 10 µM.

`C[C@@H]1OCC2(CCN(c3nc4[nH]nc(N5CCCc6ncccc65)c4nc3C#N)CC2)[C@@H]1N` [Compound 12C, 6-[(3S,4S)-4-amino-3-methyl-2-oxa-8-azaspiro[4.5]decan-8-yl]-3-(1,2,3,4-tetrahydro-1,5-naphthyridin-1-yl)-1H-pyrazolo[3,4-b]pyrazine-5-carbonitrile] gave an IC50 (Table 3) of less than 1 µM.

For the molecule `NCC1CCCCN1C(=O)c1cnc2c(-c3cccc(Cl)c3F)n[nH]c2n1` (stereo not shown) [Compound 13B], the IC50 (Table 2) is not below 10 µM.

With `Cc1nc2c(N3CCCc4ncccc43)n[nH]c2nc1N1CCC2(CC1)CO[C@@H](C)[C@H]2N` [Compound 13C, (3S,4S)-8-(3-(3,4-dihydro-1,5-naphthyridin-1(2H)-yl)-5-methyl-1H-pyrazolo[3,4-b]pyrazin-6-yl)-3-methyl-2-oxa-8-azaspiro[4.5]decan-4-amine], for the setting “Table 3”, the IC50 is less than 1 µM.

Molecule `C[C@@H]1OCC2(CCN(c3nc4[nH]nc(N5CCCc6ncccc65)c4nc3CO)CC2)[C@@H]1N` [Compound 14C, (6-((3S,4S)-4-amino-3-methyl-2-oxa-8-azaspiro[4.5]decan-8-yl)-3-(3,4-dihydro-1,5-naphthyridin-1(2H)-yl)-1H-pyrazolo[3,4-b]pyrazin-5-yl)methanol] had an IC50 (Table 3) of less than 1 µM.

`COCc1nc2c(N3CCCc4ncccc43)n[nH]c2nc1N1CCC(C)(CN)CC1` [Compound 15C] registered an IC50 (Table 3) of less than 1 µM.

In turn, `CC1(CN)CCN(c2nc3[nH]nc(N4CCCc5c4cccc5S(C)(=O)=O)c3nc2CO)CC1` [Compound 16C] returned an IC50 (Table 3) of less than 1 µM.

As to `C[C@@H]1OCC2(CCN(c3nc4[nH]nc(N5CC[C@H](C)c6cc(C#N)ccc65)c4nc3CO)CC2)[C@@H]1N` [Compound 17C], for the setting “Table 3”, the IC50 is less than 1 µM.

`C[C@H]1CCN(c2n[nH]c3nc([C@H]4CC[C@@H](CN)CC4)cnc23)c2ccc(C#N)cc21` [Compound 18B, (4S)-4-methyl-1-{6-[(1r,4r)-4-(aminomethyl)cyclohexyl]-1H-pyrazolo[3,4-b]pyrazin-3-yl}-1,2,3,4-tetrahydroquinoline-6-carbonitrile] displayed an IC50 (Table 2) of less than 1 µM.

Take `C[C@H]1CCN(c2n[nH]c3nc([C@H]4CC[C@H](CN)CC4)cnc23)c2ccc(C#N)cc21` [Compound 19B, (4S)-4-methyl-1-{6-[(1s,4s)-4-(aminomethyl)cyclohexyl]-1H-pyrazolo[3,4-b]pyrazin-3-yl}-1,2,3,4-tetrahydroquinoline-6-carbonitrile]: the IC50 (Table 2) was 1 to 10 µM.

`C[C@@H]1OCC2(CCN(c3nc4[nH]nc(-c5cccc(Cl)c5F)c4nc3CO)CC2)[C@@H]1N` [Compound 19C] yielded an IC50 (Table 3) of less than 1 µM.

As to `C[C@@H]1OCC2(CCN(c3nc4[nH]nc(N5CCCc6nc(-c7ccn[nH]7)ccc65)c4nc3CO)CC2)[C@@H]1N` [Compound 20C, (3-(6-(1H-pyrazol-5-yl)-3,4-dihydro-1,5-naphthyridin-1(2H)-yl)-6-((3S,4S)-4-amino-3-methyl-2-oxa-8-azaspiro[4.5]decan-8-yl)-1H-pyrazolo[3,4-b]pyrazin-5-yl)methanol], where the note is “Table 3”, the IC50 was less than 1 µM.

The molecule `COC1CC(N2CCN(c3n[nH]c4nc(N5CCC6(CC5)CO[C@@H](C)[C@H]6N)c(CO)nc34)c3ccc(C#N)cc32)C1` (stereo partly shown) [Compound 21C] came in with a half-inhibitory concentration (IC50) (Table 3) of less than 1 µM.

In turn, `C[C@@H]1OCC2(CCN(c3nc4[nH]nc(-c5cccc6ncccc56)c4nc3CO)CC2)[C@@H]1N` [Compound 22C, (6-((3S,4S)-4-amino-3-methyl-2-oxa-8-azaspiro[4.5]decan-8-yl)-3-(quinolin-5-yl)-1H-pyrazolo[3,4-b]pyrazin-5-yl)methanol] displayed an IC50 (Table 3) of less than 1 µM.

For `CC(=O)N1CCN(c2n[nH]c3nc(N4CCC5(CC4)CO[C@@H](C)[C@H]5N)c(CO)nc23)c2ccccc21` [Compound 23C], for the setting “Table 3”, the IC50 is less than 1 µM.

For `C[C@@H]1OCC2(CCN(c3nc4[nH]nc(-c5ccc6occc6c5)c4nc3CO)CC2)[C@@H]1N` [Compound 24C], where the note is “Table 3”, the IC50 is less than 1 µM.
